The results in this text go back to BindingDB's records for doi:10.1002/(SICI)1098-2396(200002)35:2<79::AID-SYN1>3.0.CO;2-X (Institut De Recherches Servier, 2000).

As usually defined, the Ki is the equilibrium dissociation constant of an inhibitor or competing ligand from its target. The low end stands for higher affinity, the high end for lower affinity.

Experiment [1] addresses T1, Alpha-1D adrenergic receptor (Homo sapiens, UniProt P25100).
T1 sequence (P25100 whole entry): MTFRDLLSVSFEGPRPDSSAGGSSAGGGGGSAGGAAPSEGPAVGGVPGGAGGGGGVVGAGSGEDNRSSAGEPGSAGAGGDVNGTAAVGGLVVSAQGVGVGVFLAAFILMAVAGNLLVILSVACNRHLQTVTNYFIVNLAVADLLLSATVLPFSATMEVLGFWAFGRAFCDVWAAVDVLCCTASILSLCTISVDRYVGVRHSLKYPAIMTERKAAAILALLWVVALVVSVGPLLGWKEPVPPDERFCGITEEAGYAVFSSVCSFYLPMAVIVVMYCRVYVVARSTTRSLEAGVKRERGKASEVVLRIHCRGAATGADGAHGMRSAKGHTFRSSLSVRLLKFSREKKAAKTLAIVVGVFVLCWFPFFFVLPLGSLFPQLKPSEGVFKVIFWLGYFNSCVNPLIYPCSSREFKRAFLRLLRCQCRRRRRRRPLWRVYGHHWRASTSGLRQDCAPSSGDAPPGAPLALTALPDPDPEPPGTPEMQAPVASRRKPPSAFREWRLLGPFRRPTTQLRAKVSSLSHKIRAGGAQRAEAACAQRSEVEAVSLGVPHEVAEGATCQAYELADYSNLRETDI

The target in experiment [2] is T2, Alpha-2C adrenergic receptor (Homo sapiens, UniProt P18825).
T2 sequence (P18825 whole entry): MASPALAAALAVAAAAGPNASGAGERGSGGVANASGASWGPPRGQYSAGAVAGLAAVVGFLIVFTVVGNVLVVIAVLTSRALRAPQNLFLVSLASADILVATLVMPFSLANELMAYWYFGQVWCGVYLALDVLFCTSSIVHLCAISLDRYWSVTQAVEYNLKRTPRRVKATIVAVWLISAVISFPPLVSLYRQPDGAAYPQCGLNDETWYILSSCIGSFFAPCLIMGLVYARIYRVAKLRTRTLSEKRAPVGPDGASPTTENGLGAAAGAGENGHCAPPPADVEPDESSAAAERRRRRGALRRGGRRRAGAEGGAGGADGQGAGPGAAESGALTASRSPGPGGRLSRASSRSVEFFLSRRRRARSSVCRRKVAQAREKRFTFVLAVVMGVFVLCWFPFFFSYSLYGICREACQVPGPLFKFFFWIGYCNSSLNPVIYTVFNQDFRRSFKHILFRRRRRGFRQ

Experiment [3] addresses T3, Alpha-1A adrenergic receptor (Homo sapiens, UniProt P35348).
T3 sequence (P35348 whole entry): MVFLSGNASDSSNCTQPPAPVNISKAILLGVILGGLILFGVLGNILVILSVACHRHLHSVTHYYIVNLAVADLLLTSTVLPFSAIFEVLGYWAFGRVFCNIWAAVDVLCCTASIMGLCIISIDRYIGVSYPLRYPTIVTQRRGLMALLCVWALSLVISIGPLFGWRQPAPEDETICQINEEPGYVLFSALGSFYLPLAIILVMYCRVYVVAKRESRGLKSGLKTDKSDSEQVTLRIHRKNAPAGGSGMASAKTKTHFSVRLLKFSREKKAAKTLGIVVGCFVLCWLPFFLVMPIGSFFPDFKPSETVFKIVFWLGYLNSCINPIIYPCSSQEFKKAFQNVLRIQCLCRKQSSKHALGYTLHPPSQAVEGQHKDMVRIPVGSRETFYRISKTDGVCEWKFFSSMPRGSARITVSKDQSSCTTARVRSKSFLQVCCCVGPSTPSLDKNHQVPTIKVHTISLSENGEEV

Experiment [4] addresses T4, Alpha-2A adrenergic receptor (Homo sapiens, UniProt P08913).
T4 sequence (P08913 whole entry): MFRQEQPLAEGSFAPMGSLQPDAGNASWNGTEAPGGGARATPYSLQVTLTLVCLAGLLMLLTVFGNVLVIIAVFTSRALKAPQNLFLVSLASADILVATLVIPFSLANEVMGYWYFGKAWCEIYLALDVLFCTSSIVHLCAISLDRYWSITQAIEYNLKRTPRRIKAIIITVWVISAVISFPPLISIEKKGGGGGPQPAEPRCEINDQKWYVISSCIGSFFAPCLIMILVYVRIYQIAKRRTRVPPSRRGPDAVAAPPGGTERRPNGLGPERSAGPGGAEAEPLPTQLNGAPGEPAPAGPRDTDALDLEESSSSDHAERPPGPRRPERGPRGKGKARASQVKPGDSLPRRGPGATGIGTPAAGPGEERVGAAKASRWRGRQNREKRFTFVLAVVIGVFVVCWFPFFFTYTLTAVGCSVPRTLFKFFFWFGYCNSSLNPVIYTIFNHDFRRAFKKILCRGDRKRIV

For experiment [5], the target named is D(3) dopamine receptor (Homo sapiens, UniProt P35462).
For experiment [6], the target named is T5, Alpha-1A adrenergic receptor (Rattus norvegicus, UniProt P43140).
T5 sequence (P43140 whole entry): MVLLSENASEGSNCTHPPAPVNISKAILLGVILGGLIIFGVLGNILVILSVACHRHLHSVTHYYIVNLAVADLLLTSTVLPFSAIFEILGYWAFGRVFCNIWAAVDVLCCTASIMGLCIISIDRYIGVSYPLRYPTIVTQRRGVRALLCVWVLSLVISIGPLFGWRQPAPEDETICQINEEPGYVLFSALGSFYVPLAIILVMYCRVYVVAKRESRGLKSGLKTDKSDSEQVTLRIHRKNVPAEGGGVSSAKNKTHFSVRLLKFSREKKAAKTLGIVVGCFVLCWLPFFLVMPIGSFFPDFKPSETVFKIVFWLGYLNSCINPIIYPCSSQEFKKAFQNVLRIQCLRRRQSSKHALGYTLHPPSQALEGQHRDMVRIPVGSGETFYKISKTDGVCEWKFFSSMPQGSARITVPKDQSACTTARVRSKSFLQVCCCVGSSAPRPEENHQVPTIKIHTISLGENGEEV

Structures are written as SMILES. Several values for one entry are separate records, joined by “and”; a condition that tells them apart may be missing. Identical values can stand only once.

Sequence of D(3) dopamine receptor (P35462 as listed by the source): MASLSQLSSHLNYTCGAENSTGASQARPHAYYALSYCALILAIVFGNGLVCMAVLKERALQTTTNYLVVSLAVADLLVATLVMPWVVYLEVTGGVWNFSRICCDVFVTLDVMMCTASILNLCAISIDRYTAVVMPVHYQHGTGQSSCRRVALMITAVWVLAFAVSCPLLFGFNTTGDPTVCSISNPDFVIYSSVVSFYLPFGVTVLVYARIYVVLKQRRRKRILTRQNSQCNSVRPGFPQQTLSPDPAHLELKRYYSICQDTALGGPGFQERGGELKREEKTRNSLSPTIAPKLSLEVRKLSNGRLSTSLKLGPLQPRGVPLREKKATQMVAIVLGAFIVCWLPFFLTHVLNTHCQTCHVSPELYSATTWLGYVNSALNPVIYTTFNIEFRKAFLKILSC

With `Fc1cccc2c1OC1CNCC1O2` (stereo unspecified) [CAS_105182-45-4], the inhibition constant (Ki) in experiment [1] was 126 nM; in experiment [2], 1.58 nM; in experiment [3] it was 501 nM; in experiment [4] it was 7.94 nM and 6.3 nM; in experiment [5], 1000 nM; in experiment [6], 794 nM.
